How the values were obtained:
Assay in all cases: relative viability (nuclei count vs DMSO), 5 days (fraction); higher = more cells survive
NCI-H2087 = test system: NCI-H2087
Summary of the method: (§1)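 After 5 days of treatment, lung cancer cells in 1536-well plates were fixed and stained in a single step (final 0.05% Triton X-100, 1% formaldehyde, 1 ug/ml Hoechst) and their nuclei counted on 4× images. Treatment had been applied by pin tool the day after seeding as one drug alone or as a fixed anchor-drug dose with five library-drug doses (not always all listed) in √10 steps. Relative viability is the nuclei count of treated wells divided by that of vehicle wells, and values are medians of duplicate plates.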

NCI-H2023 = test system: NCI-H2023
Summary of the method: as §1

HCC-44 = test system: HCC-44
Summary of the method: as §1

201T = test system: 201T
Summary of the method: as §1

NCI-H2126 = test system: NCI-H2126
Summary of the method: as §1

LOU-NH91 = test system: LOU-NH91
Summary of the method: as §1

HARA = test system: HARA
Summary of the method: as §1

NCI-H647 = test system: NCI-H647
Summary of the method: as §1

NCI-H1993 = test system: NCI-H1993
Summary of the method: as §1

LCLC-103H = test system: LCLC-103H
Summary of the method: as §1

BEN = test system: BEN
Summary of the method: as §1

COc1cc2nccc(Oc3ccc(NC(=O)Nc4cc(C)on4)c(Cl)c3)c2cc1OC [Tivozanib] + CC(=O)Nc1cccc(-n2c(=O)n(C3CC3)c(=O)c3c(Nc4ccc(I)cc4F)n(C)c(=O)c(C)c32)c1 [Trametinib] (partner 0.02 µM)
relative viability (NCI-H2087; first compound 0.005 µM): 0.147 | relative viability (NCI-H2087; first compound 0.01581 µM): 0.211 | relative viability (NCI-H2087; first compound 0.05 µM): 0.193 | relative viability (NCI-H2087; first compound 0.1581 µM): 0.166 | relative viability (NCI-H2087; first compound 0.5 µM): 0.243 | relative viability (NCI-H2023; first compound 0.005 µM): 0.526 | relative viability (NCI-H2023; first compound 0.01581 µM): 0.603 | relative viability (NCI-H2023; first compound 0.05 µM): 0.606 | relative viability (NCI-H2023; first compound 0.1581 µM): 0.61 | relative viability (NCI-H2023; first compound 0.5 µM): 0.498 | relative viability (HCC-44; first compound 0.005 µM): 0.992 | relative viability (HCC-44; first compound 0.01581 µM): 1.09 | relative viability (HCC-44; first compound 0.05 µM): 1.05 | relative viability (HCC-44; first compound 0.1581 µM): 1.09 | relative viability (HCC-44; first compound 0.5 µM): 1.07 | relative viability (201T; first compound 0.005 µM): 0.691 | relative viability (201T; first compound 0.01581 µM): 0.759 | relative viability (201T; first compound 0.05 µM): 0.681 | relative viability (201T; first compound 0.1581 µM): 0.717 | relative viability (201T; first compound 0.5 µM): 0.784 | relative viability (NCI-H2126; first compound 0.005 µM): 0.595 | relative viability (NCI-H2126; first compound 0.01581 µM): 0.556 | relative viability (NCI-H2126; first compound 0.05 µM): 0.567 | relative viability (NCI-H2126; first compound 0.1581 µM): 0.444 | relative viability (NCI-H2126; first compound 0.5 µM): 0.555 | relative viability (LOU-NH91; first compound 0.005 µM): 0.736 | relative viability (LOU-NH91; first compound 0.01581 µM): 0.805 | relative viability (LOU-NH91; first compound 0.05 µM): 0.784 | relative viability (LOU-NH91; first compound 0.1581 µM): 0.744 | relative viability (LOU-NH91; first compound 0.5 µM): 0.767 | relative viability (HARA; first compound 0.005 µM): 0.628 | relative viability (HARA; first compound 0.01581 µM): 0.817 | relative viability (HARA; first compound 0.05 µM): 0.615 | relative viability (HARA; first compound 0.1581 µM): 1.06 | relative viability (HARA; first compound 0.5 µM): 0.744 | relative viability (NCI-H647; first compound 0.005 µM): 0.521 | relative viability (NCI-H647; first compound 0.01581 µM): 0.461 | relative viability (NCI-H647; first compound 0.05 µM): 0.483 | relative viability (NCI-H647; first compound 0.1581 µM): 0.408 | relative viability (NCI-H647; first compound 0.5 µM): 0.49 | relative viability (NCI-H1993; first compound 0.005 µM): 0.562 | relative viability (NCI-H1993; first compound 0.01581 µM): 0.354 | relative viability (NCI-H1993; first compound 0.05 µM): 0.625 | relative viability (NCI-H1993; first compound 0.1581 µM): 0.63 | relative viability (NCI-H1993; first compound 0.5 µM): 0.502 | relative viability (LCLC-103H; first compound 0.005 µM): 0.673 | relative viability (LCLC-103H; first compound 0.01581 µM): 0.78 | relative viability (LCLC-103H; first compound 0.05 µM): 0.694 | relative viability (LCLC-103H; first compound 0.1581 µM): 0.729 | relative viability (LCLC-103H; first compound 0.5 µM): 0.695 | relative viability (BEN; first compound 0.005 µM): 1.13 | relative viability (BEN; first compound 0.01581 µM): 1.1 | relative viability (BEN; first compound 0.05 µM): 0.961 | relative viability (BEN; first compound 0.1581 µM): 0.903

Reference: the supplement of paper PMC10307832
